Assay [1] concerns PCTP (phosphatidylcholine transfer protein) gene expression. Description: Expression of PCTP in rat sebaceous gland (epidermal split) after topical PPARgamma agonist, real-time PCR kinetics. The format is in vivo. The settings on record: for PCTP relative induction: topical 1% in acetone, female Fuzzy rats, standardized to 18S, versus carrier group; for PCTP expression in vivo at the level of the sebaceous glands following topical treatment: topical treatment with PPARγ ligand at 1%. From the text: Number per batch: 40 (8 animals per group)
Treatment: Route of administration: topical
Compound/batch: PPARgamma agonists: • A: 5-{4-[2-(methylpyridin-2-ylamino)ethoxy]-benzyl}thiazolidine-2,4-dione • B: (2-methoxyethoxymethoxy)naphthalene-2-carboxylic acid [4′-(2,4-dioxothazolidin-5-ylmethyl)biphenyl-3-ylmethyl]methylamide or rosiglitazone • C: (S)-2-ethoxy-3-{4-[6-(3-heptyl-1-methyl-ureido)pyridin-2-yl]phenyl}propionic acid
Method of evaluation: The animals are weighed at the beginning and at the end of the study. Skin biopsies are taken (6 samples of skin excised per rat) in order to analyse the expression of the genes (RNA extraction, reverse transcriptase and real-time PCR). The samples are stored overnight at 4° C. before incubation in 1M sodium bromide (NaBr) for 2 hours at 37° C. After incubation, the samples are separated into epidermis or dermis. The epidermal samples are stored at […]. Under these conditions, the sebaceous glands are in the epidermal split. PCRs are carried out, beginning with the cDNAs originating from the epidermal splits controlling sebaceous glands from control rats or rats treated with a PPARγ agonist; the mRNA is extracted using a column and quantified. The quality of the mRNAs is measured and is represented by the 18S/28S ratio. The results are standardized with respect to 18S, expressed as relative induction versus untreated animals (carrier group). The statistical analysis is obtained using internal software based on a modified Monte Carlo statistical analysis.

The test system is the same in assay [2]. Description: Expression of PCTP in Fuzzy rat epidermal split after 8 days of topical treatment, Affymetrix transcriptome analysis. Format: in vivo. The settings on record: female Fuzzy rats, topical 1% once a day for 8 days, Affymetrix 1387058_at, control condition 143. As for the experimental part:
Fuzzy Rat Epidermal Split Expression Data
The studies are carried out in female Fuzzy rats (Hsd: Fuzzy-fz) ten weeks old at the beginning of the study. The animals are treated at a dose of 1% (PPARg agonist rosiglitazone in solution in acetone) once a day for 8 days. Two hours after the final treatment, the animals are sacrificed by euthanasia and the skin on the back is removed. After incubation in dispase, the epidermis carrying the sebaceous glands is detached from the dermis (epidermal split). After grinding of the samples, the mRNA is prepared using Qiagen columns, in accordance with the supplier's instructions. The material thus prepared is subjected to large-scale transcriptome analysis on an Affymetrix platform. The data are subsequently standardized and, after statistical analysis, the results produced are expressed in arbitrary expression units (see below) accompanied, for each piece of data, by a statistical value for presence of the transcript (presence=1; absence=0).

On to `CN(CCOc1ccc(CC2SC(=O)NC2=O)cc1)c1ccccn1` (stereo not shown) [A, 5-{4-[2-(methylpyridin-2-ylamino)ethoxy]-benzyl}thiazolidine-2,4-dione], for which the PCTP relative induction in assay [1] (0 hours) is on record as 1; in assay [1] (8 hours) it was 7.06; in assay [1] (24 hours), 8.54; in assay [1] (48 hours), 6.70; in assay [1] (96 hours) it was 3.38. The “PCTP expression in vivo at the level of the sebaceous glands following topical treatment” value (“PCTP expression in vivo at the level” for short) in assay [1] was “modulated”.
On to `CCCCCCCNC(=O)N(C)c1cccc(-c2ccc(C[C@H](OCC)C(=O)O)cc2)n1` [C, (S)-2-ethoxy-3-{4-[6-(3-heptyl-1-methyl-ureido)pyridin-2-yl]phenyl}propionic acid], for which the PCTP relative induction in assay [1] (0 hours) is reported as 1; in assay [1] (8 hours), 1.54; in assay [1] (24 hours) it was 3.69; in assay [1] (48 hours), 3.11; in assay [1] (96 hours), 1.38. Also, the “PCTP expression in vivo at the level” value in assay [1] is listed as “modulated”.
“(2-methoxyethoxymethoxy)naphthalene-2-carboxylic acid [4′-(2,4-dioxothazolidin-5-ylmethyl)biphenyl-3-ylmethyl]methylamide”: in assay [2], the “Expression after treatment with 1% rosiglitazone” value is 445 arbitrary expression units. The PCTP relative induction in assay [1] (0 hours) came out at 1; in assay [1] (8 hours), 2.57; in assay [1] (24 hours), 2.79; in assay [1] (48 hours) it was 3.37; in assay [1] (96 hours), 1.15. In addition, the “PCTP expression in vivo at the level” value in assay [1] is given as “modulated”.

The values above are taken from patent US20110268742A1, “PCTP MODULATORS IN THE TREATMENT OF ACNE, OF SEBORRHOEIC DERMATITIS OR OF HYPERSEBORRHOEA” (Galderma Research & Development, priority 2008, published 2011).
